pIC50: −log10 of the molar value. Converted amounts (≈) assume the structure as drawn. The source made the active and inactive calls. The rule behind the calls is not given here. Some results are limits rather than exact numbers.

Series [1] relates to Bovine viral diarrhea virus 1. In words: Antiviral activity against Bovine viral diarrhea virus infected in MDBK cells assessed as inhibition of virus-induced cytopathic effect after 4 to 5 days by microscopy. The series is classed as functional, organism-based. To be noted: Bovine viral diarrhea virus isolates and strains. For orientation: Damage to the host cells serves as the signal in cytopathic effect assays.

The next series has as its system Hepatitis C virus. In words: Antiviral activity against HCV infected in human HuH5.2 assessed as inhibition of viral RNA synthesis after 4 days by Steady-Glo-luciferase assay. The series is classed as functional, organism-based, Hepacivirus hominis. Conditions: Huh-5-2, 96 h.
Series [2] is described as follows: Cytostatic activity against human HuH5.2 after 3 days by MTS/PMS assay. The series is classed as ADME, Huh-5-2. To be noted: HuH5.2 cells.
A short description of series [3]: Cytotoxicity against MDBK cells after 3 days by MTS/PMS method. The series is classed as cell-based, Bos taurus. To be noted: cattle.
The next series relates to Hepacivirus hominis. Kind of series: Inhibition of HCV recombinant NS5B RNA polymerase expressed in Escherichia coli up to 100 uM by liquid scintillation counter.
Series [4] is described as follows: Inhibition of ATPase activity of HCV […] expressed in Escherichia coli. Also on record: species or system Hepacivirus hominis.
The target of series [5] is DNA topoisomerase 2-alpha (Homo sapiens) (UniProt P11388). Kind of series: Inhibition of human topoisomerase 2.
Sequence of DNA topoisomerase 2-alpha (Homo sapiens) (P11388 whole entry): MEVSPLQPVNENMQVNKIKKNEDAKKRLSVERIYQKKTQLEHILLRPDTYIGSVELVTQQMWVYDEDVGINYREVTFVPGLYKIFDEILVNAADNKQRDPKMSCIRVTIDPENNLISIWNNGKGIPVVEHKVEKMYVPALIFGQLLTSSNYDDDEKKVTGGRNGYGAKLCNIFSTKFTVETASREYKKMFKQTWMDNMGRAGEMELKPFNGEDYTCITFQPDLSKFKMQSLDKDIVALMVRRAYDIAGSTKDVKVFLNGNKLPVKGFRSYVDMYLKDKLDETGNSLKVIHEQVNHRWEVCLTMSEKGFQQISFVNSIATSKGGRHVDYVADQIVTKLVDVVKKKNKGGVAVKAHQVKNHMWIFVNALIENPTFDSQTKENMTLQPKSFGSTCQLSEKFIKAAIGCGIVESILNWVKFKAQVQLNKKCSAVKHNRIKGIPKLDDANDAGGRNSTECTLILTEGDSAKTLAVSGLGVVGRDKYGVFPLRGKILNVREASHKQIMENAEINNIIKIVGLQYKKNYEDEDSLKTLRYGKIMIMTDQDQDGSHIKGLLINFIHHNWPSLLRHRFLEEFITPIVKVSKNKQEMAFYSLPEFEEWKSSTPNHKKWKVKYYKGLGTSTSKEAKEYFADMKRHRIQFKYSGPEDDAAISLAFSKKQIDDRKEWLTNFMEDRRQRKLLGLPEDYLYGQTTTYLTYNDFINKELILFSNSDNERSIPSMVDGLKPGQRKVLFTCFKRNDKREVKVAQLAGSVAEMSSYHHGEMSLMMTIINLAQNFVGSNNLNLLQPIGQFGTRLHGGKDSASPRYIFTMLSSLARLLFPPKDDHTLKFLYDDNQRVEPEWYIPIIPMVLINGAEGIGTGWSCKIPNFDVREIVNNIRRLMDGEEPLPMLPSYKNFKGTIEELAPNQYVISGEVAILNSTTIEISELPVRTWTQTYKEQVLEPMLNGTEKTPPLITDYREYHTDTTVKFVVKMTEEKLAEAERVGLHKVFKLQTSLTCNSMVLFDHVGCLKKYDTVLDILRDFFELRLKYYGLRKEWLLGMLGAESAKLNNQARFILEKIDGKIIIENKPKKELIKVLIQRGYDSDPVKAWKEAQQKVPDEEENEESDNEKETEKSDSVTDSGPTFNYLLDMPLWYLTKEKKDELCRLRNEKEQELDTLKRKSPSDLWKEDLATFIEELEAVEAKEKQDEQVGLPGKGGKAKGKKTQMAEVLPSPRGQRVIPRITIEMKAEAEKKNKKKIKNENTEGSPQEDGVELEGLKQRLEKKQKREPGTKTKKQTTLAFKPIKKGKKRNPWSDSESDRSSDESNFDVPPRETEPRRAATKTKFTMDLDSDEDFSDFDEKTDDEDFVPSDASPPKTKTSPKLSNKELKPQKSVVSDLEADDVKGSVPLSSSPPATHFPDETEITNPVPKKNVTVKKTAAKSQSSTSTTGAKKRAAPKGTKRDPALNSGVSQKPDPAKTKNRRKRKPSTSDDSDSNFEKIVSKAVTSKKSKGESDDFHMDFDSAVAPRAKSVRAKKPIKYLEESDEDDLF
In series [6] the test system is Vero. Kind of series: Cytostatic activity against african green monkey Vero cells. The series is classed as ADME, cell-based. To be noted: chlorocebus sabaeus.
Series [7] relates to Vero. Kind of series: Cytostatic activity against african green monkey Vero cells in presence of guanosine. The series is classed as ADME, cell-based. To be noted: chlorocebus sabaeus.
A short description of series [8]: Inhibition of HCV NS3 helicase expressed in Escherichia coli. Also on record: species or system Hepacivirus hominis.

For the molecule `Cn1c2cc(Cl)c(N)cc2c(=O)c2c(O)cc(O)cc21`, the EC50 came to 0.4 µg/mL (≈ 1.38 µM) in [1] and 1.48 µg/mL (≈ 5.09 µM) in the series on Hepatitis C virus. The CC50 at 72 h in [2] was 3 µg/mL (≈ 10.3 µM); in [3], 5 µg/mL (≈ 17.2 µM). The outcome (in the series on Hepacivirus hominis; in series [5]) was inactive. Moreover, the pIC50 in series [4] was < 3.00.
For `COc1cc(OCC(C)C)c2c(=O)c3cc(N)c(N4CCN(c5ccccn5)CC4)cc3n(C)c2c1`, the EC50 in the series with Hepatitis C virus came out at 3.8 µg/mL (≈ 7.79 µM). Besides, in [2], it took 27 µg/mL (≈ 55.4 µM) to reach half-maximal cytotoxicity (CC50 at 72 h). Moreover, the outcome with Hepacivirus hominis was inactive. Moreover, the Activity result is reported as “Toxic” with Vero [6] and “Non-toxic” in the series with Vero [7]. In addition, the pIC50 in series [4] is < 3.00.
For `Cn1c2cc(N3CCN(c4ccccn4)CC3)c(N)cc2c(=O)c2c(O)cc(O)cc21`, the EC50 came out at 0.5 µg/mL (≈ 1.2 µM) in [1] and 1.7 µg/mL (≈ 4.07 µM) in the series with Hepatitis C virus. The values for the CC50 at 72 h in [2] and in series [3] were 21 µg/mL (≈ 50.3 µM) and > 100 µg/mL, respectively. The outcome (in the series with Hepacivirus hominis; in [5]) was inactive. In series [4], the pIC50 is < 3.00.
Regarding `COc1cc(OC)c2c(=O)c3cc(N)c(N4CCN(c5ccncc5)CC4)cc3n(C)c2c1`, in the series with Hepatitis C virus, the EC50 stood at 5.5 µg/mL (≈ 12.3 µM). For the same molecule, the CC50 at 72 h in series [2] is > 50 µg/mL. The outcome in the series on Hepacivirus hominis was inactive. The Activity entry is recorded as “Toxic” in the series on Vero [6] and “Non-toxic” in the series with Vero [7]. The pIC50 in series [4] was < 3.00.
Turning to `COc1cc(OC)c2c(=O)c3ccc(N4CCN(c5ccccn5)CC4)cc3n(C)c2c1`, the EC50 in the series on Hepatitis C virus amounted to 2.3 µg/mL (≈ 5.34 µM). Moreover, in series [2], the CC50 at 72 h is > 50 µg/mL. Moreover, the outcome in the series with Hepacivirus hominis was inactive. For the same molecule, the Activity entry is “Toxic” in the series on Vero [6] and “Non-toxic” in the series on Vero [7]. Further, the pIC50 in [4] is < 3.00.
For the molecule `COc1cc(OC)c2c(=O)c3cc(N)c(N4CCN(c5nccs5)CC4)cc3n(C)c2c1`, the EC50 with Hepatitis C virus worked out at 3 µg/mL (≈ 6.64 µM). The CC50 at 72 h in series [2] is > 50 µg/mL. Besides, the result in the series on Hepacivirus hominis was inactive. In addition, the Activity result with Vero [6] is on record as “Toxic”; in the series on Vero [7] it was “Non-toxic”. The pIC50 in series [4] is < 3.00. Moreover, in [8], the IC50 was determined as 50 µg/mL (≈ 111 µM).
Turning to `COc1cc(OC)c2c(=O)c3cc(N)c(N4CCN(c5ccccn5)CC4)cc3n(C)c2c1`, the values for the EC50 (in [1]; with Hepatitis C virus) were > 100 µg/mL and 1.6 µg/mL (≈ 3.59 µM), respectively. For the same molecule, the CC50 at 72 h is 50 µg/mL (≈ 112 µM) in series [2] and > 100 µg/mL in [3]. Besides, the outcome (in the series with Hepacivirus hominis; in series [5]) was inactive. Further, the Activity result in the series on Vero [6] is “Toxic”; with Vero [7], “Non-toxic”. Also, the pIC50 in series [4] was < 3.00.
As to `COc1cc(O)c2c(=O)c3cc(N)c(N4CCN(c5ccccn5)CC4)cc3n(C)c2c1`, the figures for the EC50 (in series [1]; in the series with Hepatitis C virus) were 4 µg/mL (≈ 9.27 µM) and 13 µg/mL (≈ 30.1 µM), respectively. Besides, the CC50 at 72 h in series [2] is > 50 µg/mL; in series [3], > 100 µg/mL. Further, in the series on Hepacivirus hominis, the outcome was inactive. Moreover, in [4], the pIC50 was < 3.00.

As usually defined, the EC50 is the midpoint of the concentration-response curve. In general, CC50 refers to the concentration that lowers cell viability or growth by half. A word on the pIC50: it is −log10 of the IC50, conventionally taken in molar units. Usually IC50 stands for the concentration that gives 50% inhibition.

Source of the values: ChEMBL document CHEMBL1138495, “Inhibition of subgenomic hepatitis C virus RNA replication by acridone derivatives: identification of an NS3 helicase inhibitor” (J Med Chem, 2009).
